Measured values: ChEMBL document CHEMBL5260850, “The exploration of aza-quinolines as hematopoietic prostaglandin D synthase (H-PGDS) inhibitors with low brain exposure” (Bioorg Med Chem, 2020)
Active and inactive are the calls of the source. The calls are words filed in the database; no cut-off is given here.

What was measured:
[1] = Volume of distribution at steady state in mouse at 1 mg/kg, iv; format: ADME, organism-based; settings: in vivo, read-out: Vdss
[2] = Ratio of drug level in brain to blood in mouse at 1 mg/kg, iv; format: ADME, organism-based; settings: read-out: BBR
[3] = Clearance in rat at 0.4 mg/kg, iv; format: ADME, organism-based; settings: in vivo
[4] = Oral bioavailability in rat at 2.4 mg/kg; format: ADME, organism-based; settings: in vivo
[5] = Oral bioavailability in dog at 1 mg/kg; format: ADME, organism-based, Canis lupus familiaris; settings: in vivo
[6] = Inhibition of m-PGES (unknown origin); design: species or system Homo sapiens
[7] = molecular target: Potassium voltage-gated channel subfamily KQT member 1 (Homo sapiens, UniProt P51787); assay: Inhibition of Kv7.1 channel (unknown origin) upto 10000 nM; settings: 10 µM
[8] = molecular target: Aryl hydrocarbon receptor (Homo sapiens, UniProt P35869); assay: Inhibition of AhR (unknown origin) upto 10000 nM; settings: 10 µM
Mus musculus [9] = assay: Anti-inflammatory activity against C57BL6/N mouse assessed as reduction in LPS-induced PGD2 level in skeletal muscle administered orally with compound and 1 hr later treated with LPS and measured after 30 mins by LC-MS/MS analysis; format: functional; settings: route po, time 1.5 hrs
[10] = Selectivity ratio of EC50 for inhibition of H-PGDS in rat RBL cells assessed as reduction in A23187-induced PGD2 production to EC50 for anti-inflammatory activity against po dosed C57BL6/N mouse assessed as reduction in LPS-induced PGD2 level in plasma
Mus musculus [11] = assay: Anti-inflammatory activity against C57BL/6N mouse assessed as inhibition of muscle function loss by measuring functional recovery of injured limb muscles administered orally for 10 mins prior to unilateral eccentric contraction and QD for 16 days thereafter; settings: 384 h, route po, time 16 day
[12] = Cmax in eccentric contraction-induced muscle injury C57BL/6N mouse model administered orally for 10 mins prior to unilateral eccentric contraction and QD for 16 days thereafter; format: ADME; design: time 16 day, route po; settings: in vivo, po
[13] = AUC (0 to last) in mdx mouse administered orally 10 mins prior to unilateral eccentric contraction and QD for 43 days thereafter; format: ADME; design: time 43 day, route po; settings: in vivo, po
[14] = Cmax in mdx mouse administered orally 10 mins prior to unilateral eccentric contraction and QD for 43 days thereafter; format: ADME; design: time 43 day, route po; settings: in vivo, po
[15] = Free AUC (0 to last) in mdx mouse administered orally 10 mins prior to unilateral eccentric contraction and QD for 43 days thereafter; format: ADME; settings: in vivo, po, 1032 h, time 43 day
[16] = Toxicity in compound 48/80-treated C57BL/6J mouse assessed as seizures administered orally with compound and 1 hr later treated with compound 48/80 for 7 mins; settings: in vivo, po, 1.117 h, time 67 min
[17] = Toxicity in C57BL/6N mouse assessed as seizures administered orally for 10 mins prior to unilateral eccentric contraction and QD for 43 days thereafter; settings: in vivo, po, 1032 h, time 43 day
[18] = Toxicity in rat assessed as tolerance at 300 mg/kg, po administered as single dose; format: organism-based; settings: in vivo
[19] = Toxicity in Wistar Han rat assessed as morphological changes in heart at 30 mg/kg/day, po administered QD for 7 days by microscopic analysis; format: organism-based; settings: in vivo, 168 h, time 7 day
[20] = Toxicity in Wistar Han rat assessed as morphological changes in adrenal gland at 30 mg/kg/day, po administered QD for 7 days by microscopic analysis; format: organism-based; settings: in vivo, 168 h, time 7 day
[21] = Toxicity in Wistar Han rat assessed as morphological changes in thymus at 30 mg/kg/day, po administered QD for 7 days by microscopic analysis; format: organism-based; settings: in vivo, 168 h, time 7 day
[22] = Toxicity in Wistar Han rat assessed as necrosis and inflammatory cell infiltrates in heart at 100 mg/kg/day, po administered QD for 7 days by microscopic analysis; format: organism-based; settings: in vivo, 168 h, time 7 day
[23] = Toxicity in Wistar Han rat assessed as proximal tubular vacuolation and hyaline cast formation in kidney at 100 mg/kg/day, po administered QD for 7 days by microscopic analysis; format: organism-based; settings: in vivo, 168 h, time 7 day
[24] = Cmax in Wistar Han rat at 100 mg/kg/day, po QD for 7 days; format: ADME, organism-based; design: dose 100 mg/kg/day, time 7 day, route po; settings: in vivo
[25] = Toxicity in dog assessed as decrease in body temperature at 75 mg/kg/day, po QD for 4 days; format: organism-based, Canis lupus familiaris; settings: in vivo, 96 h, time 4 day
[26] = Toxicity in dog assessed as degeneration of zona glomerulosa in adrenal gland at 75 mg/kg/day, po QD for 4 days by microscopic analysis; format: organism-based, Canis lupus familiaris; settings: in vivo, 96 h, time 4 day
[27] = AUC in dog at 30 mg/kg/day, po QD for 4 days; format: ADME, organism-based, Canis lupus familiaris; design: dose 30 mg/kg/day, time 4 day, route po; settings: in vivo
[28] = AUC in dog at 75 mg/kg/day, po QD for 4 days; format: ADME, organism-based, Canis lupus familiaris; design: time 4 day, dose 75 mg/kg/day, route po; settings: in vivo
[29] = Cmax in dog at 10 mg/kg/day, po QD for 4 days; format: ADME, organism-based, Canis lupus familiaris; design: dose 10 mg/kg/day, time 4 day, route po; settings: in vivo
[30] = molecular target: 5-hydroxytryptamine receptor 1B (Homo sapiens) (UniProt P28222); settings: dose <= 10000.0 nM
Description: Inhibition of 5-HT1B receptor (unknown origin) upto 10000 nM

[31] = molecular target: 5-hydroxytryptamine receptor 2C (Homo sapiens) (UniProt P28335); settings: dose <= 10000.0 nM
Description: Inhibition of 5-HT2C receptor (unknown origin) upto 10000 nM

[32] = molecular target: Alpha-1B adrenergic receptor (Homo sapiens) (UniProt P35368); settings: dose <= 10000.0 nM
Description: Inhibition of alpha1B adrenergic receptor (unknown origin) upto 10000 nM

[33] = molecular target: Kappa-type opioid receptor (Homo sapiens) (UniProt P41145); settings: dose <= 10000.0 nM
Description: Inhibition of kappa opioid receptor (unknown origin) upto 10000 nM

[34] = molecular target: Mu-type opioid receptor (Homo sapiens) (UniProt P35372); settings: dose <= 10000.0 nM
Description: Inhibition of mu opioid receptor (unknown origin) upto 10000 nM

[35] = molecular target: Adenosine receptor A2a (Homo sapiens) (UniProt P29274); settings: dose <= 10000.0 nM
Description: Inhibition of adenosine A2A receptor (unknown origin) upto 10000 nM

[36] = molecular target: Substance-P receptor (Homo sapiens) (UniProt P25103); settings: dose <= 10000.0 nM
Description: Inhibition of tachykinin NK1 receptor (unknown origin) upto 10000 nM

[37] = molecular target: Vasopressin V1a receptor (Homo sapiens) (UniProt P37288); settings: dose <= 10000.0 nM
Description: Inhibition of V1A receptor (unknown origin) upto 10000 nM

[38] = molecular target: GABA-A receptor; anion channel (Homo sapiens) (UniProt P14867+P47870+P18507+P28472+P48169+Q99928+Q9UN88+P34903+O00591+O14764+Q8N1C3+P18505+P78334+P47869+P31644+Q16445); settings: dose <= 10000.0 nM
Description: Inhibition of GABAA receptor (unknown origin) upto 10000 nM

[39] = molecular target: Prostaglandin G/H synthase 2 (Homo sapiens) (UniProt P35354); settings: dose <= 10000.0 nM
Description: Inhibition of COX-2 (unknown origin) upto 10000 nM

[40] = molecular target: Aurora kinase B (Homo sapiens) (UniProt Q96GD4); settings: dose <= 10000.0 nM
Description: Inhibition of Aurora B kinase (unknown origin) upto 10000 nM

[41] = molecular target: Tyrosine-protein kinase Lck (Homo sapiens) (UniProt P06239); settings: dose <= 10000.0 nM
Description: Inhibition of LCK (unknown origin) upto 10000 nM

[42] = molecular target: Phosphatidylinositol 4,5-bisphosphate 3-kinase catalytic subunit gamma isoform (Homo sapiens) (UniProt P48736); settings: dose <= 10000.0 nM
Description: Inhibition of PI3K-gamma (unknown origin) upto 10000 nM

Mus musculus [43] = organism: Mus musculus; assay: animal or person; settings: C57BL/6J, Mast cell, po, 1.117 h

Chain of 5-hydroxytryptamine receptor 2C (Homo sapiens) (P28335 whole entry): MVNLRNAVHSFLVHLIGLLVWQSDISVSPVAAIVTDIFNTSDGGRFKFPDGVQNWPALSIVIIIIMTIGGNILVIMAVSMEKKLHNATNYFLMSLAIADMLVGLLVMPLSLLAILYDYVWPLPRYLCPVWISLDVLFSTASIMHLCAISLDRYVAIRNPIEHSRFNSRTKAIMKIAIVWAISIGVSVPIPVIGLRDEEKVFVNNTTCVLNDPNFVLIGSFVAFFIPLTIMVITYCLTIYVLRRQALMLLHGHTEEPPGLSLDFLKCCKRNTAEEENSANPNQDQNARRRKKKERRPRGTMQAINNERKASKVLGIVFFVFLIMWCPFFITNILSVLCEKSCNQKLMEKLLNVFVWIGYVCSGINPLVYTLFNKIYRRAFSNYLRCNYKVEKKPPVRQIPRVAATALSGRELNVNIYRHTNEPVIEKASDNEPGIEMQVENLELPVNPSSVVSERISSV
Chain of Potassium voltage-gated channel subfamily KQT member 1 (P51787 whole entry): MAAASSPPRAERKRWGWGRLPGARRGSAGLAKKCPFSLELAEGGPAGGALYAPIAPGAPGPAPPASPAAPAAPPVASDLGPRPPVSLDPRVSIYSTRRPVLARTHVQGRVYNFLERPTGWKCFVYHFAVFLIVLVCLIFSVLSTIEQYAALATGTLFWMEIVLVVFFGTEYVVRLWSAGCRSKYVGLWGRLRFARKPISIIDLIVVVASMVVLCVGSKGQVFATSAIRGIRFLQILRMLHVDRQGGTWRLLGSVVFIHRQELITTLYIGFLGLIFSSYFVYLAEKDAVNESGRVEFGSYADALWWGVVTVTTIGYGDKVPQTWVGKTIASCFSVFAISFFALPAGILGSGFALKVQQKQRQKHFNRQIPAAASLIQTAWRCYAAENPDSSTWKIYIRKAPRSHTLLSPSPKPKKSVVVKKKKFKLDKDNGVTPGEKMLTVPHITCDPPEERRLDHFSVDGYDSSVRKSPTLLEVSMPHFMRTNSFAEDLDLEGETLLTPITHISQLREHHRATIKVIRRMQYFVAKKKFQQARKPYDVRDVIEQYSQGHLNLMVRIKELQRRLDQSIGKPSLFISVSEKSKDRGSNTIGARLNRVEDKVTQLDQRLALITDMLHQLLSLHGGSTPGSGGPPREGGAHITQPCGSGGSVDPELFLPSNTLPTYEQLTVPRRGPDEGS
Chain of Prostaglandin G/H synthase 2 (Homo sapiens) (P35354 whole entry): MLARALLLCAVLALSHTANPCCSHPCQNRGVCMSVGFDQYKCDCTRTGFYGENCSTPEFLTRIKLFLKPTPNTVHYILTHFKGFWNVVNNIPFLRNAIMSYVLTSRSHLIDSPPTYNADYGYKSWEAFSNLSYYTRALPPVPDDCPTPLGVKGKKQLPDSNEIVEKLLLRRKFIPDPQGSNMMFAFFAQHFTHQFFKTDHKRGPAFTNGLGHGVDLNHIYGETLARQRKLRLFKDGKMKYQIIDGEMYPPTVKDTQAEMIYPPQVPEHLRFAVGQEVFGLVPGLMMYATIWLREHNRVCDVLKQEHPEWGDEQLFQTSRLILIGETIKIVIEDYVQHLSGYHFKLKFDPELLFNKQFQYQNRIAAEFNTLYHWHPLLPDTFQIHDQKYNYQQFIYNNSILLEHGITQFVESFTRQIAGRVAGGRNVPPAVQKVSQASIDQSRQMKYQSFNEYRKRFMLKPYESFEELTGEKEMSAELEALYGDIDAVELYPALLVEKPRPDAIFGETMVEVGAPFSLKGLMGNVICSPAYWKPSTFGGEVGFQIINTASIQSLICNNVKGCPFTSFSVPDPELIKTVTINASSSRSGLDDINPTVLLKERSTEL
Chain of Kappa-type opioid receptor (Homo sapiens) (P41145 whole entry): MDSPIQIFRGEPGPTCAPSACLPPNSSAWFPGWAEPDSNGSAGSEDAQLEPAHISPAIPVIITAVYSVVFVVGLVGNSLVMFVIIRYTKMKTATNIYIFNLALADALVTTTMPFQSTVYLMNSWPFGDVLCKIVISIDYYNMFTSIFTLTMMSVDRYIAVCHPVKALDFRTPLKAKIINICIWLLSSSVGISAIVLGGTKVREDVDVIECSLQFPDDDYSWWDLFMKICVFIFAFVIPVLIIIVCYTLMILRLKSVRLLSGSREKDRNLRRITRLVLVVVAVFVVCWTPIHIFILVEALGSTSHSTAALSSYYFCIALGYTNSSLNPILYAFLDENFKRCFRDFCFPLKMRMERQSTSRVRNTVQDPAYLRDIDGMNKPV
Chain of Alpha-1B adrenergic receptor (Homo sapiens) (P35368 whole entry): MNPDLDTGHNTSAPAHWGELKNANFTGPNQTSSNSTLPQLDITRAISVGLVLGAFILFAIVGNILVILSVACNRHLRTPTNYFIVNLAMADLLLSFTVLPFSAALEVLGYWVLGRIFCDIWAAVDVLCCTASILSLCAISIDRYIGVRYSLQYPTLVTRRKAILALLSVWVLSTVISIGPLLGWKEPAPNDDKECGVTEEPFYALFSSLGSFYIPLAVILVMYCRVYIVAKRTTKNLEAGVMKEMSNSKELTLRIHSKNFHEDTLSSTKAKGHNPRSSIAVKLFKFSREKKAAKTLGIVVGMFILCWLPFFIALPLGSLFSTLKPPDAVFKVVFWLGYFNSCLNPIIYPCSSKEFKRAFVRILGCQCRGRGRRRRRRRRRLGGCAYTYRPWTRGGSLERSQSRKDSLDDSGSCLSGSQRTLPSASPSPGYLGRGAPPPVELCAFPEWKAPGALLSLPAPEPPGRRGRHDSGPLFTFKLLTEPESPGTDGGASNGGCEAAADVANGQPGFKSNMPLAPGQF
Chain of 5-hydroxytryptamine receptor 1B (Homo sapiens) (P28222 whole entry): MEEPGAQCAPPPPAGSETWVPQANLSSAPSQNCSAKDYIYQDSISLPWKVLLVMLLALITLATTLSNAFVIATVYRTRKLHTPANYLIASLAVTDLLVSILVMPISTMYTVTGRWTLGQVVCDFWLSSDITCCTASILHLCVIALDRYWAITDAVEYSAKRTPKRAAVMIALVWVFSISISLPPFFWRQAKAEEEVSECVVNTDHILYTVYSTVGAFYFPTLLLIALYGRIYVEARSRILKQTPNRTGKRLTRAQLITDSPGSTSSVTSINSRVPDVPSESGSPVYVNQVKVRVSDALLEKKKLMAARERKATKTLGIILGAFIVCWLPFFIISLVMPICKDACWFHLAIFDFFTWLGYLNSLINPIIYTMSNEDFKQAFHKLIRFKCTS
Chain of Aurora kinase B (Homo sapiens) (Q96GD4 whole entry): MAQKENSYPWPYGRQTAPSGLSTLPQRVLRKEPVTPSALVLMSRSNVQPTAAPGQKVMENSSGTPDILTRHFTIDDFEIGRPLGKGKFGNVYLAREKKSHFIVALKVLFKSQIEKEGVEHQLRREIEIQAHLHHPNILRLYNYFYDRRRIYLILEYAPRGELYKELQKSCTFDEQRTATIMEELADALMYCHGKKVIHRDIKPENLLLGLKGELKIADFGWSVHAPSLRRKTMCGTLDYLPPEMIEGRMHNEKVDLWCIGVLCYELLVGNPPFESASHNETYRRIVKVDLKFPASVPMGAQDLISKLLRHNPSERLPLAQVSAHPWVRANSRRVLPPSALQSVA
Chain of Aryl hydrocarbon receptor (P35869 whole entry): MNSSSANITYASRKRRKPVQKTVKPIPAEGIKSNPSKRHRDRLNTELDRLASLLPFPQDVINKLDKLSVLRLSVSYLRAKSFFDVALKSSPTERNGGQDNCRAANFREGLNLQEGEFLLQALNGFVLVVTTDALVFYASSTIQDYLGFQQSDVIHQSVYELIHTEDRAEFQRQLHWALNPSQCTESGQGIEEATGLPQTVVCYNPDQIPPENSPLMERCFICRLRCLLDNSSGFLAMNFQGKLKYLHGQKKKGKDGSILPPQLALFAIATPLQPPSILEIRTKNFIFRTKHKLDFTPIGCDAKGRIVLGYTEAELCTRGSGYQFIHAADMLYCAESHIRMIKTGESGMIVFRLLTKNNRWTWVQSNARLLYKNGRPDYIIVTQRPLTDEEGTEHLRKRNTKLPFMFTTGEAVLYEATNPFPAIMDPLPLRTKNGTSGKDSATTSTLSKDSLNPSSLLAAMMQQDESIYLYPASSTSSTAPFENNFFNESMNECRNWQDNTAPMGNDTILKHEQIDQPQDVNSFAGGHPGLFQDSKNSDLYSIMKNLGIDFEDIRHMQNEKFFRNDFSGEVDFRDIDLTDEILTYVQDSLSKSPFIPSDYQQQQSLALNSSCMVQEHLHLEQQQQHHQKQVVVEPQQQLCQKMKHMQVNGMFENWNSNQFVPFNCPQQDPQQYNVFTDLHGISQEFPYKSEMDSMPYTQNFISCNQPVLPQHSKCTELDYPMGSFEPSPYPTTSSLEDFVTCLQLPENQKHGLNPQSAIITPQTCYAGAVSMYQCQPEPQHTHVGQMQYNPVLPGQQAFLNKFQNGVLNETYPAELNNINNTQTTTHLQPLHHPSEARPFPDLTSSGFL
Chain of Mu-type opioid receptor (Homo sapiens) (P35372 whole entry): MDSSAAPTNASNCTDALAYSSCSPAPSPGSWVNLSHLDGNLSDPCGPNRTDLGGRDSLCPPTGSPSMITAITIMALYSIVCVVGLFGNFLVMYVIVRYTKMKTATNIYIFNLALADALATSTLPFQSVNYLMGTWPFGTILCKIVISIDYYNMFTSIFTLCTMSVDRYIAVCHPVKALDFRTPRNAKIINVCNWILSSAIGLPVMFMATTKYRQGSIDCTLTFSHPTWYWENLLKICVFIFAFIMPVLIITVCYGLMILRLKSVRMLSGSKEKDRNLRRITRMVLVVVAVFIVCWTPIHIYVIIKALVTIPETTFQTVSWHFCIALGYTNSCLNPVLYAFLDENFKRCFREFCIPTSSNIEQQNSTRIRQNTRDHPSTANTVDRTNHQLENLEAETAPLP

`CC(C)(O)[C@H]1CC[C@H](NC(=O)c2cnc3nc(C4CC4)ccc3c2)CC1` showed a Vd [1] of 1.6 L/kg, a Kp [2] of 0.06 and a clearance [3] of 4.5 mL/min/kg. The bioavailability [4] was 100%, the bioavailability [5] was 92% and the IC50 [6] was > 100 µM. For the same compound, the “inhibition (INH)” value [7] was “Not Active”, the “inhibition (INH)” value [8] was “Not Active” and the ED50 (Mus musculus [9]) was 0.0138 mg/kg. For the same compound, the “Ratio EC50” value [10] was 10, the ED50 (Mus musculus [11]) was 3 mg/kg and the Cmax [12] was 1700 ng/mL. The AUC(0-t) at 1032 h [13] was 1.1 µg·h/mL, the Cmax [14] was 260 ng/mL and the fAUClast [15] was 0.2 µg·h/mL. The Activity [16] was “Non-Toxic”, the Activity [17] was “Non-Toxic” and the Activity [18] was “Non-Toxic”. The Activity [19] was “Non-Toxic”, the Activity [20] was “Non-Toxic” and the Activity [21] was “Non-Toxic”. For the same compound, the Activity [22] was “Toxic”, the Activity [23] was “Toxic” and the Cmax [24] was 57000 ng/mL. For the same compound, the Activity [25] was “Toxic”, the Activity [26] was “Toxic” and the AUC at 96 h [27] was 430 µg·h/mL. For the same compound, the AUC at 96 h [28] was 3600 µg·h/mL, the Cmax [29] was 13000 ng/mL and the inhibition [30] was “inactive”. For the same compound, the inhibition [31] was “inactive”, the inhibition [32] was “inactive” and the inhibition [33] was “inactive”. The inhibition [34] was “inactive”, the inhibition [35] was “inactive” and the inhibition [36] was “inactive”. For the same compound, the inhibition [37] was “inactive”, the inhibition [38] was “inactive” and the inhibition [39] was “inactive”. For the same compound, the inhibition [40] was “inactive”, the inhibition [41] was “inactive” and the inhibition [42] was “inactive”. The ED50 (Mus musculus [43]) was 0.009 mg/kg.
